pIC50: −log10 of the molar value.
Test system: not listed separately
Experiment: Assay for oral absorptivity (plasma drug level after oral administration)
Assay type: in vivo
Conditions: male, rat, 40 umol/kg; SD rats, oral, plasma
Experimental: 1) Preparation of Specimen for Measuring Drug Level upon Oral Administration
For use as experimental animals, SD rats (Charles River Japan, male, 8 weeks old, 220-270 g) was starved overnight. Test compounds (25˜30 mg) were dissolved in polyethyleneglycol 400 (PEG400) 20%, and a 0.5% carboxy methyl cellulose (CMC) solution 80% to produce solutions of 4 μmmol/mL. The rats were weighed. The test compounds were orally administered at a dose of 40 μmol/kg (ca. 25˜30 mg/kg) to the rats using a sonde and a 3 mL syringe. Blood samples were taken 20, 40, 60, 120, 240, and 360 min after the oral administration. Plasmas separated from the blood samples by centrifugation were used as specimens.
2) Measurement of Drug Level
0.09 mL of methanol was added to 0.03 mL of the plasma obtained in 1), followed by vortexing to precipitate and remove proteins. 0.005 mL of the supernatant was injected to LC/MS/MS.
Apparatus: Shiseido Nanospace SI-2
Column: Shiseido capcelpack C18, MG3, 5 um, 2.0 mm I.D×50 mm
Mobile Phase: a mixture of 3:7 10 mM ammonium formate (pH 4.0): acetonitrile.

Cmax [ng/mL]	Compound
5100	Cc1c(N2CCN(Cc3cccc(C(F)(F)F)c3)CC2)c(=O)n(C[C@H](NCCCC(=O)O)c2ccccc2)c(=O)n1Cc1c(F)cccc1C(F)(F)F [Compound 11-2]
4140	Cc1cc(F)cc([C@H](Cn2c(=O)c(N3CCN(Cc4ccc(C(F)(F)F)o4)CC3)c(C)n(Cc3c(F)cccc3C(F)(F)F)c2=O)NCCCC(=O)O)c1 [Compound 11-4]

Same assay, conditions: male, rat, 40 μmol/kg; plasma drug level after oral administration, SD rats; read-out: AUC8 hr

AUC(0-t) [ng·h/mL]	Compound
29400	Cc1c(N2CCN(Cc3cccc(C(F)(F)F)c3)CC2)c(=O)n(C[C@H](NCCCC(=O)O)c2ccccc2)c(=O)n1Cc1c(F)cccc1C(F)(F)F [Compound 11-2]
19600	Cc1cc(F)cc([C@H](Cn2c(=O)c(N3CCN(Cc4ccc(C(F)(F)F)o4)CC3)c(C)n(Cc3c(F)cccc3C(F)(F)F)c2=O)NCCCC(=O)O)c1 [Compound 11-4]

Target: T1, GnRH receptor (Homo sapiens, UniProt P30968)
T1 sequence (P30968 1-328): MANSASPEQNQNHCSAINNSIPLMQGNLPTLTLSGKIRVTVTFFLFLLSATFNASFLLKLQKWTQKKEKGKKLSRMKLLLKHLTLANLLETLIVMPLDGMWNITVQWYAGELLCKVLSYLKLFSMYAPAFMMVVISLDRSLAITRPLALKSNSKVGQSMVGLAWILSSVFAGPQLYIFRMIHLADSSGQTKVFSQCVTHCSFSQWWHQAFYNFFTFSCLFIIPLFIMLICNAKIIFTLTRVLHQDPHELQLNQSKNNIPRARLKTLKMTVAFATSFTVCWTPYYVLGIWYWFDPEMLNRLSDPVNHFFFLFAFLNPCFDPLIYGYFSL
Experiment: GnRH receptor membrane binding assay ([125I]-D-Trp6-LHRH competition)
Design: purchased Perkin Elmer; host or cells: CHO-K1 (stably transfected), membrane preparation
Conditions: not given
Experimental: A membrane Target system (Perkin Elmer), isolated from CHO-K1 cells stably transfected with a GnRH receptor, was employed. […] After incubation at 27° C. for 1 hr, the reaction mix was transferred to a filter (Fitermat A, PerkinElmer) using a vacuum pump and the reaction was terminated by washing many times with 50 mM tris-HCl buffer. The radioactivity on the filter was measured using Microbeta2 trilux (PerkinElmer). The competitors were analyzed for binding inhibition rate (%) on the basis of the measured radioactivity and calculated for IC50 values using a nonlinear least square regression method with Prism (GraphPad, Inc.).

pIC50	Compound
> 7.00	Cc1c(N2CCN(Cc3ccc(O)cc3)CC2)c(=O)n(C[C@H](N)c2ccccc2)c(=O)n1Cc1c(F)cccc1F [Compound 3-31]
> 7.00	Cc1c(N2CCCC(C)C2)c(=O)n(C[C@H](N)c2ccccc2)c(=O)n1Cc1c(F)cccc1F (stereo partly drawn) [Compound 1-18]
> 7.00	Cc1c(N2CCN(Cc3cccc(C(F)(F)F)c3F)CC2)c(=O)n(C[C@H](N)c2ccccc2)c(=O)n1Cc1c(F)cccc1F [Compound 3-50]
> 7.00	Cc1c(N2CCN(Cc3cccc(OC(F)(F)F)c3)CC2)c(=O)n(C[C@H](N)c2ccccc2)c(=O)n1Cc1c(F)cccc1F [Compound 3-1]
> 7.00	Cc1c(N2CCN(Cc3cccc(C(F)(F)F)c3)CC2)c(=O)n(C[C@H](N)c2ccccc2)c(=O)n1Cc1c(F)cccc1F [Compound 3-47]

Same assay, conditions: membrane from CHO-K1 cells stably transfected with GnRH receptor; 0.2 nM [125I]-D-Trp6-LHRH; Table 26 lists compounds with IC50 of less than 100 nM; read-out: IC50 as measured by the GnRH receptor membrane binding assay

pIC50	Compound
> 7.00	N[C@@H](Cn1c(=O)c(N2CCN(Cc3cccc(-c4nnn[nH]4)c3)CC2)cn(Cc2c(F)cccc2C(F)(F)F)c1=O)c1ccccc1 [Compound 18, 3-((R)-2-amino-2-phenyl-ethyl)-1-(2-fluoro-6-trifluoromethyl-benzyl)-5-{4-[3-(1H-tetrazol-5-yl)-benzyl]-piperazin-1-yl}-1H-pyrimidine-2,4-dione]
> 7.00	COC(=O)CNC(=O)c1cccc(CN2CCN(c3c(C)n(Cc4c(F)cccc4C(F)(F)F)c(=O)n(C[C@H](N)c4ccccc4)c3=O)CC2)c1 [Compound 10-1]
> 7.00	Cc1c(N2CCN(Cc3cccnc3)CC2)c(=O)n(C[C@H](N)c2ccccc2)c(=O)n1Cc1c(F)cccc1F [Compound 3-7]
> 7.00	Cc1c(N2CCN(Cc3ccc(OC(F)(F)F)cc3)CC2)c(=O)n(C[C@H](N)c2ccccc2)c(=O)n1Cc1c(F)cccc1F [Compound 3-49]
> 7.00	Cc1c(N2CCN(Cc3ccc(C(F)(F)F)o3)CC2)c(=O)n(C[C@H](NCCCCC(=O)O)c2ccccc2)c(=O)n1Cc1c(F)cccc1C(F)(F)F [Compound 11-8]
> 7.00	Cc1cccc(CN2CCN(c3c(C)n(Cc4c(F)cccc4F)c(=O)n(C[C@H](N)c4ccccc4)c3=O)CC2)c1O [Compound 4-9]
> 7.00	Cc1c(N2CCN(Cc3ccc(C(F)(F)F)o3)C(CO)C2)c(=O)n(C[C@H](N)c2ccccc2)c(=O)n1Cc1c(F)cccc1C(F)(F)F (stereo partly drawn) [Compound 22, 3-((R)-2-amino-2-phenyl-ethyl)-1-(2-fluoro-6-trifluoromethyl-benzyl)-5-[3-hydroxymethyl-4-(5-trifluoromethyl-furan-2-ylmethyl)-piperazin-1-yl]-6-methyl-1H-pyrimidine-2,4-dione]
> 7.00	Cc1c(N2CCN(Cc3ccc(F)c(C(F)(F)F)c3)CC2)c(=O)n(C[C@H](N)c2ccccc2)c(=O)n1Cc1c(F)cccc1F [Compound 3-52]
> 7.00	Cc1c(N2CCN(Cc3ccc(C(F)(F)F)o3)CC2)c(=O)n(C[C@H](O)c2ccccc2)c(=O)n1Cc1c(F)cccc1C(F)(F)F [Compound 20, 1-(2-fluoro-6-trifluoromethyl-benzyl)-3-((R)-2-hydroxy-2-phenyl-ethyl)-6-methyl-5-[4-(5-trifluoromethyl-furan-2-ylmethyl)-piperazin-1-yl]-1H-pyrimidine-2,4-dione]
> 7.00	Cc1ccc(CN2CCN(c3c(C)n(Cc4c(F)cccc4F)c(=O)n(C[C@H](N)c4ccccc4)c3=O)CC2)c(C)c1 [Compound 4-4]
> 7.00	Cc1cccc(C)c1CN1CCN(c2c(C)n(Cc3c(F)cccc3F)c(=O)n(C[C@H](N)c3ccccc3)c2=O)CC1 [Compound 4-6]
> 7.00	Cc1c(N2CCN(Cc3ccc4c(c3)OCO4)CC2)c(=O)n(C[C@H](N)c2ccccc2)c(=O)n1Cc1c(F)cccc1F [Compound 1-13]
> 7.00	Cc1c(N2CCC(Cc3ccccc3)CC2)c(=O)n(C[C@H](N)c2ccccc2)c(=O)n1Cc1c(F)cccc1F [Compound 1-26]
> 7.00	CCOC(=O)CCNC(=O)c1cccc(CN2CCN(c3c(C)n(Cc4c(F)cccc4C(F)(F)F)c(=O)n(C[C@H](N)c4ccccc4)c3=O)CC2)c1 [Compound 10-2]
> 7.00	Cc1cc(C)c(CN2CCN(c3c(C)n(Cc4c(F)cccc4F)c(=O)n(C[C@H](N)c4ccccc4)c3=O)CC2)c(C)c1 [Compound 3-32]
> 7.00	CSc1ccc(CN2CCN(c3c(C)n(Cc4c(F)cccc4F)c(=O)n(C[C@H](N)c4ccccc4)c3=O)CC2)cc1 [Compound 3-29]
> 7.00	Cc1c(N2CCN(Cc3ccc(C(F)(F)F)o3)CC2)c(=O)n(C[C@H](NCCC(O)C(=O)O)c2ccccc2)c(=O)n1Cc1c(F)cccc1C(F)(F)F (stereo partly drawn) [Compound 21, 4-((R)-2-{3-(2-fluoro-6-trifluoromethyl-benzyl)-4-methyl-2,6-dioxo-5-[4-(5-trifluoromethyl-furan-2-ylmethyl)-piperazin-1-yl]-3,6-dihydro-2H-pyrimidin-1-yl}-1-phenyl-ethylamino)-2-hydroxy-butyric acid]
> 7.00	Cc1c(N2CCC(C)CC2)c(=O)n(C[C@H](N)c2ccccc2)c(=O)n1Cc1c(F)cccc1F [Compound 1-16]

Compound	pIC50
CCOP(=O)(O)CCCN[C@@H](Cn1c(=O)c(N2CCN(Cc3ccc(C(F)(F)F)o3)CC2)c(C)n(Cc2c(F)cccc2C(F)(F)F)c1=O)c1ccccc1 [Compound 11-10]	> 7.00

Target: T1, GnRH receptor
Experiment: GnRH-R reporter assay (NFAT promoter luciferase, leuprolide acetate as ligand)
Assay type: cell-based
Conditions: not given
Experimental: A double-transformed cell line (HEK293 transformed with pcDNA3.1/GnRH receptor and pGL4/NFAT promoter) was employed. To conduct a GnRH-R reporter assay, the double-transformed cell line was diluted at a density of 3×10^4 cells/well in a medium (DMEM, 10% FBS, 1% Penicillin-Streptomycin), plated into polylysine-coated white-clear bottom 96-well plates and incubated for 24 hrs. After the medium was changed with a serum-free medium (DMEM, 1% Penicillin-Streptomycin), the cells were incubated for an additional 12 hrs before reaction. The cells were incubated for 1 hr with a GnRH antagonist to be tested and then for an additional 6 hrs with a ligand (leuprolide acetate, Sigma), followed by reaction with a Luciferase assay system (Promega, Cat. No. E1500).
Each sample was analyzed at a 6-dose level to obtain the binding inhibitory rates (%) of the competitors on the basis of the measured luminescence. IC50 values were calculated using a nonlinear least square regression method with Prism (GraphPad, Inc.).

pIC50	Compound
8.00	Cc1c(N2CCN(Cc3cccc(C(F)(F)F)c3)CC2)c(=O)n(C[C@H](NCCCC(=O)O)c2ccccc2)c(=O)n1Cc1c(F)cccc1C(F)(F)F [Compound 11-2]

Same assay, conditions: HEK293 transformed with pcDNA3.1/GnRH receptor and pGL4/NFAT promoter; luciferase; read-out: IC50 Value

pIC50	Compound
8.31	Cc1cc(F)cc([C@H](Cn2c(=O)c(N3CCN(Cc4ccc(C(F)(F)F)o4)CC3)c(C)n(Cc3c(F)cccc3C(F)(F)F)c2=O)NCCCC(=O)O)c1 [Compound 11-4]

From patent publication US9034850B2, “Gonadotropin releasing hormone receptor antagonist, preparation method thereof and pharmaceutical composition comprising the same” (SK Chemicals Co., Ltd., priority 2009, dated 2015)
